In assay [1] the target is dopaminergic receptors D2 (Homo sapiens, UniProt P14416). Nature of the assay: Radioligand binding assay, dopaminergic D2 receptors. The settings on record: binding assay, test compound 1×10^−6 M. In short, it runs like this:
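Competition binding with scintillation counting of bound radioligand; specific binding taken as total minus non-specific binding measured with excess unlabelled ligand. IC50 obtained by Hill-equation non-linear regression of replicate-mean curves, then converted to Ki via Cheng–Prusoff using radioligand concentration and Scatchard-derived KD.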

In assay [2] the target is dopaminergic receptors D3 (Homo sapiens, UniProt P35462). As to the kind of experiment: Radioligand binding assay, dopaminergic D3 receptors. The settings on record: test compound 1×10^−6 M. In short, it runs like this:
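Competition radioligand binding at human D2, D3 and D4.4 receptors, detected by scintillation counting; nonspecific binding defined with excess unlabelled ligand. Results as percent inhibition of control specific binding; IC50 by Hill-equation nonlinear regression; Ki via Cheng-Prusoff, with radioligand KD from Scatchard plot.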

In assay [3] the target is T1, 5-HT1A receptor (rat hippocampus) (Rattus norvegicus, UniProt P19327).
T1 construct: hippocampus; from tissue; host or cells: rat hippocampus
T1 sequence (P19327 1-422): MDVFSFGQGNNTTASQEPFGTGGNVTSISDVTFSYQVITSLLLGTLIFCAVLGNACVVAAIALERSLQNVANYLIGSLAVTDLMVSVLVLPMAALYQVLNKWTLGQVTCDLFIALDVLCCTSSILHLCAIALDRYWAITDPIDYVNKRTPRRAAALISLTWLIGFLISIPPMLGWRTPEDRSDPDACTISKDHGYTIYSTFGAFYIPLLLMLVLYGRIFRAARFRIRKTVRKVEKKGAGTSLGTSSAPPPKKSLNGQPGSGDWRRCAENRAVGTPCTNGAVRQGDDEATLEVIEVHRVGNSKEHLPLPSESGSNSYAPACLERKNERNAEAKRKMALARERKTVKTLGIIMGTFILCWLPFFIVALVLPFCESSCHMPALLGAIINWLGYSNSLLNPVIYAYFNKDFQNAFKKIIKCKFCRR
Nature of the assay: Radioligand binding assay, serotoninergic 5-HT1A receptors. Particulars: binding assay result in %, Table 5a.

The target of assay [4] is T2, 5-HT2A receptor (Homo sapiens, UniProt P28223).
T2 construct: purchased PerkinElmer
As to the kind of experiment: Radioligand binding assay, serotoninergic 5-HT2A receptors. Particulars: binding assay result in %, Table 5a. The procedure, abridged: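 Radioligand competition binding with scintillation counting; nonspecific binding defined by excess unlabelled ligand. Data as percent inhibition of control specific binding. IC50 by Hill-equation fit of competition curves; Ki by Cheng-Prusoff, with radioligand Kd from Scatchard plot.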

In assay [5] the target is T3, 5-HT2C receptor (Homo sapiens, UniProt P28335).
T3 construct: expressed in transfected cells; host or cells: HEK-293 cells
T3 sequence (P28335 33-458): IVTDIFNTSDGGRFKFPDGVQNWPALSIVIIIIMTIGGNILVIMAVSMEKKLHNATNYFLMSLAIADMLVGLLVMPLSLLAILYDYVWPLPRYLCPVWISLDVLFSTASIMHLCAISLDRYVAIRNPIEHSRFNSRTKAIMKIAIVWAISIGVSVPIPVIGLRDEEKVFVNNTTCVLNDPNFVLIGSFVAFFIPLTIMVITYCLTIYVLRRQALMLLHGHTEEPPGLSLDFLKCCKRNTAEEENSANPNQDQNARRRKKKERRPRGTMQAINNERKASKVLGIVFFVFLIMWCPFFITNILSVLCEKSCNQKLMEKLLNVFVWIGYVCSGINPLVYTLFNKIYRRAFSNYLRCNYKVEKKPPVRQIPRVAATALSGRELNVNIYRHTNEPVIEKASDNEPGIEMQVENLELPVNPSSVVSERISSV
Nature of the assay: Radioligand binding assay, serotoninergic 5-HT2C receptors. The settings on record: test compound 1×10^−6 M.

Assay [6] concerns α1 adrenergic receptors (rat cerebral cortex). Nature of the assay: Radioligand binding assay, adrenergic α1 receptors. The settings on record: test compound 1×10^−6 M. In short, it runs like this: (§1)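 Values derive from radioligand displacement, with non-specific binding defined by excess cold ligand and detection by scintillation. Hill-fit IC50s were converted to Ki via Cheng-Prusoff using Scatchard-derived Kd; percent inhibition of control specific binding also reported.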

Assay [7] concerns the target T4, M3 muscarinic receptors (Homo sapiens, UniProt P20309).
T4 construct: expressed in transfected cells; host or cells: CHO cells
Nature of the assay: Radioligand binding assay, muscarinic M3 receptors. The settings on record: test compound 1×10^−6 M. The procedure, abridged:
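Radioligand competition binding, detected by scintillation counting; non-specific binding defined with excess unlabelled ligand. Results given as % inhibition of control specific binding; IC50 from Hill-equation fit of competition curves, Ki via Cheng-Prusoff with radioligand KD from Scatchard plot.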

In assay [8] the target is T5, serotonin transporter (SERT) (Homo sapiens, UniProt P31645).
T5 construct: expressed in transfected cells; host or cells: CHO cells
Nature of the assay: Radioligand binding assay, serotonin transporter (SERT). Particulars: for inhibition at 1 µM / SERT [%]: binding assay, test compound 1×10^−6 M; for Ki: read-out: Inhibition constants Ki for SERT, SERT. The procedure, abridged: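 Radioligand competition binding with scintillation detection; specific binding is total minus binding under excess unlabelled ligand. Reported as % of control specific binding or % inhibition; IC50 from Hill-equation non-linear regression of competition curves, and Ki via Cheng-Prusoff using radioligand concentration and Scatchard-derived KD.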

Assay [9] has as its target T6, H1 histaminergic receptors (Homo sapiens, UniProt P35367).
T6 construct: expressed in transfected cells; host or cells: HEK-293 cells
As to the kind of experiment: Radioligand binding assay, histaminergic H1 receptors. Particulars: human recombinant (HEK-293 cells), [3H]pyrilamine 1 nM. The procedure, abridged: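 Competition binding at human H1 receptors; specific binding taken as total minus non-specific binding in excess unlabelled ligand, scintillation read-out. IC50 from Hill-equation fit of competition curves; Ki by Cheng-Prusoff using radioligand concentration and Kd (from Scatchard plot).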

The subject of assay [10] is σ receptors. Nature of the assay: Radioligand binding assay, σ receptors. Particulars: rat cerebral cortex, [3H]DTG 8 nM. In short, it runs like this:
as §1

Molecules are shown by their SMILES.

T6 sequence (P35367 whole entry): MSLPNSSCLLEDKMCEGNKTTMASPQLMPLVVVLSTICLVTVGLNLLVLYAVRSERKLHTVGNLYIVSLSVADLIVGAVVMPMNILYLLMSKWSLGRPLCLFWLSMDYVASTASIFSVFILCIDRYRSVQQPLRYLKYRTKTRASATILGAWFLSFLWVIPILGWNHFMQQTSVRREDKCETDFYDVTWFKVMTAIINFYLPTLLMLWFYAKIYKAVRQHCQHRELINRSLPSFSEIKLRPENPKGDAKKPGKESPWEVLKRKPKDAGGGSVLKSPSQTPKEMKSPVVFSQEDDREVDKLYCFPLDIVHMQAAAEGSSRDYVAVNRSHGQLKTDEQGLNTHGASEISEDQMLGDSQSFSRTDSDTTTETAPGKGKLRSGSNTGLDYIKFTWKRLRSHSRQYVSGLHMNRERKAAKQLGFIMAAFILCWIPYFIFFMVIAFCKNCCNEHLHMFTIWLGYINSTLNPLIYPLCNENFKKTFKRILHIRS
T2 sequence (P28223 whole entry): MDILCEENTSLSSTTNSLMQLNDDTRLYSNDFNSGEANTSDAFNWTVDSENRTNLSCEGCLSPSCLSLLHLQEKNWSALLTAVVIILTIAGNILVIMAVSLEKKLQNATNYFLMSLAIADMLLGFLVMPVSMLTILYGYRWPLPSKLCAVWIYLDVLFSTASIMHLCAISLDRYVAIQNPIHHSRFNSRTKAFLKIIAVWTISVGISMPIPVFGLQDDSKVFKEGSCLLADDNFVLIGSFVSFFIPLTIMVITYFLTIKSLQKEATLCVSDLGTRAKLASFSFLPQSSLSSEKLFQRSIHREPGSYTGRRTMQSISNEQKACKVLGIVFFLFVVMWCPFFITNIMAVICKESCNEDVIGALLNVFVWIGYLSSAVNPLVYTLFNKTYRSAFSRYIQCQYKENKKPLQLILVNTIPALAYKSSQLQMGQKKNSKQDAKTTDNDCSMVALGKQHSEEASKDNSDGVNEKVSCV
T4 sequence (P20309 whole entry): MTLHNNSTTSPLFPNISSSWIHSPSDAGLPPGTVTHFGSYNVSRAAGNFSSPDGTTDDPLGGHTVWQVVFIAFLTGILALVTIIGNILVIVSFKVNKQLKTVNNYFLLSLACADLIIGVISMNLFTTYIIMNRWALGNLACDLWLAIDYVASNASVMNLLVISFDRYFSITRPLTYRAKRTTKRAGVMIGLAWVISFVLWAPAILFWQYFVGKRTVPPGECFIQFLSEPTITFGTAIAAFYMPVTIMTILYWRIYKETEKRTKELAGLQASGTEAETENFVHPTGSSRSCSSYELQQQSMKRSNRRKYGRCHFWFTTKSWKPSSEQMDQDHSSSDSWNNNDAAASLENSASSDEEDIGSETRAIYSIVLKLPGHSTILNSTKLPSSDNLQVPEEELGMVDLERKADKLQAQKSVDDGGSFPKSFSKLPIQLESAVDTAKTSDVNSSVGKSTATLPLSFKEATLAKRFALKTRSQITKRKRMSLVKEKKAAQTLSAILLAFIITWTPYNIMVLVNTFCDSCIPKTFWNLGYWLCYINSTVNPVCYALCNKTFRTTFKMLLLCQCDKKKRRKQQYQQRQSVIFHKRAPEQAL
dopaminergic receptors D2, sequence (P14416 whole entry): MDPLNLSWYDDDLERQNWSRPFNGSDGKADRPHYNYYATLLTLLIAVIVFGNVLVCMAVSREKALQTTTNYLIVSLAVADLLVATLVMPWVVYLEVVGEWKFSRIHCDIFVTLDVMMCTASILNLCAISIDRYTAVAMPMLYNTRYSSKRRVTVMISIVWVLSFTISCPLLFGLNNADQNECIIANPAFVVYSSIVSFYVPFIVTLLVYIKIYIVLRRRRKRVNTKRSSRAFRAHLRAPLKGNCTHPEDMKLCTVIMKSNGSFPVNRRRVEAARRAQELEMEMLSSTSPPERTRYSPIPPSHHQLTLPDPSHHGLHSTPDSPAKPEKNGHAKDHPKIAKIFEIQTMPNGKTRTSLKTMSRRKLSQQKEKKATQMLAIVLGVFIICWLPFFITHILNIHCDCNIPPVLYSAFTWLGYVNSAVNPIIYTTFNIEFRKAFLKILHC
dopaminergic receptors D3, sequence (P35462 whole entry): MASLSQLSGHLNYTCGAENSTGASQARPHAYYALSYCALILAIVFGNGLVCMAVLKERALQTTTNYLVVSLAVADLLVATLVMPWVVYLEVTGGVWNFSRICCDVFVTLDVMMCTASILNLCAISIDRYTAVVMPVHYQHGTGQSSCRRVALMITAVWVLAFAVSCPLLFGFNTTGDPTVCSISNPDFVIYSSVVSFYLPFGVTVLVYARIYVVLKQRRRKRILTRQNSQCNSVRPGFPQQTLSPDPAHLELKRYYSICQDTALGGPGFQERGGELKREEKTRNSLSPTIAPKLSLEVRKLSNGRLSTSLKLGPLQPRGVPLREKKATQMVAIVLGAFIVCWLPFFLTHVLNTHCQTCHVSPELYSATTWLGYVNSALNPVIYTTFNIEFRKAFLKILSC
T5 sequence (P31645 whole entry): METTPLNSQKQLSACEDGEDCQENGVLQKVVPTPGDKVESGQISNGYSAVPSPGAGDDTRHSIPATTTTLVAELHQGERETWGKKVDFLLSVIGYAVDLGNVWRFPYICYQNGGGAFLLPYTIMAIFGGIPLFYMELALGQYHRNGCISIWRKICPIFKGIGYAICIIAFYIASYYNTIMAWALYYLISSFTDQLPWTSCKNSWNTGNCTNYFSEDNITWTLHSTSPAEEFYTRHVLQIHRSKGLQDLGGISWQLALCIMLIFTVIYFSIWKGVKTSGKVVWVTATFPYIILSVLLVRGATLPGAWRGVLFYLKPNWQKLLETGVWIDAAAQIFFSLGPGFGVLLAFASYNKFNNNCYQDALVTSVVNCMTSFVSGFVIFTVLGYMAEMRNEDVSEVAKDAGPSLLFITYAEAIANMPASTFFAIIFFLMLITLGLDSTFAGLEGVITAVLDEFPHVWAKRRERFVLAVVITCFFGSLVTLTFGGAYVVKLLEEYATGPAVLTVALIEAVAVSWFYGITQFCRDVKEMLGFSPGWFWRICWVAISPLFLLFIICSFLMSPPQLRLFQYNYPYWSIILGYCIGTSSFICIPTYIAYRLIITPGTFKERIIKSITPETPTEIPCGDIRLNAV

As to `Cc1cccc(S(=O)(=O)NC2CCN(CCCc3c[nH]c4ccc(F)cc34)C2)c1` (stereo not shown) [Compound 78, N-[1-[3-(5-Fluoro-1H-indol-3-yl)propyl]pyrrolidin-3-yl]-3-methyl-benzenesulphonamide], the inhibition (usually the relative decrease from the control value, in per cent) at 1 µM in assay [1] came to 89%; in assay [2], 98%; in assay [3], 99%; in assay [4] it was 95%; in assay [5], 78%; in [7], 5%. Moreover, the inhibition at 1 µM in assay [8] worked out at 101%; in [9], 65%. For the same compound, in assay [6], the “α1 [%]” value was 39%. Besides, in assay [8], the Ki – broadly, the dissociation constant of the complex between target and ligand, obtained from inhibition or displacement – was determined as 1 nM. In [10], the “σ [%]” value is reported as 70%.
In the case of `O=S(=O)(NC1CCN(CCCc2c[nH]c3ccc(Cl)cc23)C1)c1cccc(F)c1` (stereo not shown) [Compound 82, N-[1-[3-(5-Chloro-1H-indol-3-yl)propyl]pyrrolidin-3-yl]-3-fluoro-benzene-sulphonamide], the inhibition at 1 µM was 90% in assay [1]; 94% in [2]; 99% in [3]; 91% in assay [4]; 82% in assay [5]; 9% in [7]. The inhibition at 1 µM in assay [8] stood at 100%; in [9], 61%. For the same compound, the “α1 [%]” value in [6] is on record as 43%. Besides, the Ki in [8] was 1.3 nM. In addition, in assay [10], the “σ [%]” value was found to be 63%.
Regarding `O=S(=O)(NC1CCN(CCCc2c[nH]c3ccc(Cl)cc23)C1)c1cccc(Cl)c1` (stereo not shown) [Compound 84, 3-Chloro-N-[1-[3-(5-chloro-1H-indol-3-yl)propyl]pyrrolidin-3-yl]benzenesulphonamide], the inhibition at 1 µM in [1] was 89%; in assay [2] it was 99%; in [3], 99%; in assay [4] it was 78%; in [5], 88%; in assay [7], 3%. For the same compound, the inhibition at 1 µM in [8] was determined as 104%; in assay [9], 79%. In addition, the “α1 [%]” value in assay [6] was found to be 51%. Besides, the Ki in assay [8] came to 2.6 nM. In addition, the “σ [%]” value in [10] stood at 59%.
Turning to `O=S(=O)(NC1CN(CCOc2cccc3c2OCCO3)C1)c1cccc(F)c1` [Compound 89, N-[1-[2-(2,3-Dihydro-1,4-benzodioxan-8-yloxy)ethyl]azetidin-3-yl]-3-fluoro-benzenesulphonamide], the “D2 [%]” value in assay [1] is given as 24%. For the same compound, the “D3 [%]” value in assay [2] is 23%. In addition, the “5-HT1A [%]” value in assay [3] is reported as 98%. Besides, the “5-HT2A [%]” value in assay [4] stood at 74%. Besides, the “5-HT2C [%]” value in assay [5] was determined as 53%. Moreover, the “α1 [%]” value in assay [6] was 45%. For the same compound, the “M3 [%]” value in [7] is −6%. Besides, the “SERT [%]” value in assay [8] was found to be 3%. For the same compound, the “H1 [%]” value in assay [9] stood at 3%. Further, in [10], the “σ [%]” value turned out to be 24%.
In the case of `O=S(=O)(NC1CN(CCOc2cccc3c2OCCO3)C1)c1ccc(Cl)cc1` [Compound 92, 4-Chloro-N-[1-[2-(2,3-dihydro-1,4-benzodioxan-8-yloxy)ethyl]azetidin-3-yl]benzene-sulphonamide], the “D2 [%]” value in assay [1] worked out at 49%. In assay [2], the “D3 [%]” value turned out to be 60%. Further, the “5-HT1A [%]” value in [3] was determined as 100%. Besides, the “5-HT2A [%]” value in [4] came to 60%. Moreover, the “5-HT2C [%]” value in assay [5] amounted to 52%. Further, the “α1 [%]” value in assay [6] was 47%. In addition, in [7], the “M3 [%]” value amounted to 4%. Further, the “SERT [%]” value in assay [8] is recorded as 10%. Also, the “H1 [%]” value in [9] is listed as 6%. Moreover, the “σ [%]” value in [10] is 15%.
Take `Cc1cccc(S(=O)(=O)NC2CN(CCOc3cccc4c3OCCO4)C2)c1` [Compound 93, N-[1-[2-(2,3-Dihydro-1,4-benzodioxan-8-yloxy)ethyl]azetidin-3-yl]-3-methyl-benzenesulphonamide]: the “D2 [%]” value in assay [1] is given as 78%. Moreover, in [2], the “D3 [%]” value is 75%. Further, in assay [3], the “5-HT1A [%]” value stood at 98%. The “5-HT2A [%]” value in assay [4] is 72%. The “5-HT2C [%]” value in [5] worked out at 50%. In addition, in assay [6], the “α1 [%]” value was 52%. For the same compound, the “M3 [%]” value in [7] was 1%. Further, the “SERT [%]” value in assay [8] is 23%. For the same compound, the “H1 [%]” value in [9] was 34%. The “σ [%]” value in [10] turned out to be 35%.
Turning to `CC1(C)Cc2cccc(OCCN3CCC(NS(=O)(=O)c4ccc5ccccc5c4)CC3)c2O1` [Compound 110, N-[1-[2-[(2,2-Dimethyl-3H-benzofuran-7-yl)oxy]ethyl]-4-piperidine]naphthalene-2-sulphonamide], the “D2 [%]” value in assay [1] is 74%. Also, the “D3 [%]” value in assay [2] was 73%. For the same compound, the “5-HT1A [%]” value in [3] is 95%. Also, the “5-HT2A [%]” value in assay [4] turned out to be 91%. The “5-HT2C [%]” value in assay [5] came to 85%. Further, the “α1 [%]” value in assay [6] worked out at 45%. Moreover, in assay [7], the “M3 [%]” value is listed as −7%. Moreover, the “SERT [%]” value in [8] was 39%. In addition, the “H1 [%]” value in [9] stood at 52%. In [10], the “σ [%]” value was 56%.
In the case of `O=S(=O)(NCC1CN(CCCc2noc3cc(F)ccc23)C1)c1ccc(-c2ccccc2)cc1` [Compound 135, N-[[1-[3-(6-Fluoro-1,2-benzoxazol-3-yl)propyl]azetidin-3-yl]methyl]-4-phenyl-benzenesulphonamide], the inhibition at 1 µM amounted to 92% in assay [1]; 94% in assay [2]; 77% in [3]; 99% in assay [4]; 86% in assay [5]; 19% in assay [7]. The inhibition at 1 µM was determined as 68% in assay [8] and 79% in [9]. Moreover, in [6], the “α1 [%]” value was 88%. Further, the “σ [%]” value in assay [10] is listed as 94%.
`CC(C)(C)c1ccc(S(=O)(=O)NCC2CN(CCOc3cccc4c3OCCO4)C2)cc1` [Compound 181, 4-tert-Butyl-N-[[1-[2-(2,3-dihydro-1,4-benzodioxin-5-yloxy)ethyl]azetidin-3-yl]methyl]benzenesulphonamide]: the inhibition at 1 µM in assay [1] was found to be 73%; in assay [2] it was 77%; in [3], 98%; in [4], 89%; in [5], 93%; in [7] it was 0%. Besides, the inhibition at 1 µM worked out at 26% in [8] and 27% in [9]. Besides, in assay [6], the “α1 [%]” value is reported as 50%. In addition, the “σ [%]” value in assay [10] came out at 75%.
`O=S(=O)(NCC1CN(CCOc2cccc3c2OCCO3)C1)c1ccc(Cl)c(Cl)c1` [Compound 183, 3,4-Dichloro-N-[[1-[2-(2,3-dihydro-1,4-benzodioxin-5-yloxy)ethyl]azetidin-3-yl]methyl]benzenesulphonamide]: the inhibition at 1 µM in assay [1] amounted to 92%; in assay [2], 79%; in assay [3], 98%; in assay [4], 94%; in assay [5], 98%; in assay [7], 13%. Moreover, the inhibition at 1 µM in assay [8] was determined as 48%; in [9], 42%. Moreover, the “α1 [%]” value in [6] was determined as 85%. For the same compound, the “σ [%]” value in assay [10] is reported as 94%.

These data come from patent publication US20140135310A1, “SULPHONAMIDE DERIVATIVES OF ALICYCLIC AMINES FOR THE TREATMENT OF CENTRAL NERVOUS SYSTEM DISEASES” (Adamed Sp. z o.o., priority 2011, published 2014).
